Measured values published in patent US11021413B2, “Benzylpropargylether as nitrification inhibitors” (BASF SE, priority 2014, dated 2021).

tested on: nitrification; assay: Inhibition of nitrification in soil (48 well plate, ammonium sulfate, colour reaction read at 540 nm); details: dose of 5±1 ppm; field soil; up to 72 hrs at room temperature; compared to control (DMSO only)
Experimental: The compounds of the invention have been tested as follows in terms of the inhibition of nitrification:
Soil was sampled fresh from a field (e.g. Limburgerhof), dried and sieved through a 500 μm sieve. Approximately 200 mg of soil were placed into each well of a 48 well plate. […] 6 μmol ammonium sulfate was added per well as well as 4.8 mg NaClO3.
Subsequently, the samples were incubated at room temperature for up to 72 hrs. After the incubation period 64 mg KCl were added and mixed. 25 μl of the supernatant were placed into a fresh plate and 260 μl of a color reaction solution (from Merck Nr 1.11799.0100) were added. Measurements were taken with a Tecan plate Reader at 540 nm wavelength.
Inhibition is calculated as x=% activity compared to control, and converted to 100-x to give the value of inhibition, rather than activity.

C#CCOCc1ccc(C(=O)N(C)C)cc1 [Compound 1-33] was tested. Which “IN (best inhibition value obtained for a compound)” value did it give?
The value was 24%.

Which “IN (best inhibition value obtained for a compound)” value does the source give for C#CCOCc1ccc(OCCC)cc1 [Compound 1-27] here?
Its value is 59%.

For C#CCOCc1ccc(C)cc1 [Compound 1-29], which “IN (best inhibition value obtained for a compound)” value is on record?
Its value is 37%.

C#CCOCc1ccccc1 [Compound 1-28] was tested. Which “IN (best inhibition value obtained for a compound)” value did it give?
The value was 88%.

With C#CCOCc1ccc(OC(C)C)cc1 [Compound 1-24] as the molecule, how does the “IN (best inhibition value obtained for a compound)” value read?
Its value is 18%.

C#CCOCc1ccc(C#N)cc1 [Compound 1-30] was tested. Which “IN (best inhibition value obtained for a compound)” value did it give?
Its value is 25%.

How did the “IN (best inhibition value obtained for a compound)” value turn out when C#CCOCc1ccc(F)cc1 [Compound 1-25] was run?
The value was 87%.

With C#CCOCc1ccc(I)cc1 [Compound 1-32] as the molecule, how does the “IN (best inhibition value obtained for a compound)” value read?
The value was 53%.

Which “IN (best inhibition value obtained for a compound)” value does the source give for C#CCOCc1ccc(OCC)cc1 [Compound 1-26] here?
Its value is 69%.

For C#CCOCc1ccc(C(=O)O)cc1 [Compound 1-31], which “IN (best inhibition value obtained for a compound)” value is on record?
Its value is 18%.

With C#CCOCc1ccc(COCC#C)cc1 [Compound 1-23] as the molecule, how does the “IN (best inhibition value obtained for a compound)” value read?
The value was 18%.

same assay, conditions: dose of 10 ppm; field soil; up to 72 hrs at room temperature; compared to control (DMSO only)

With C#CCOCc1ccc(Oc2ccccc2)cc1 [Compound 1-3] as the molecule, how does the “IN (best inhibition value obtained for a compound)” value read?
The value was 11%.

C#CCOC(Cn1cncn1)c1ccc(Oc2ccc(Cl)cc2)cc1Cl (stereo not shown) [Compound 1-6] was tested. Which “IN (best inhibition value obtained for a compound)” value did it give?
The value was 10%.

With C#CCOCc1ccc(Cl)cc1Cl [Compound 1-10] as the molecule, how does the “IN (best inhibition value obtained for a compound)” value read?
Its value is 14%.

How did the “IN (best inhibition value obtained for a compound)” value turn out when C#CCOCc1ccc(Oc2ccc(F)cc2)cc1 [Compound 1-4] was run?
The value was 15%.

For C#CCOCc1ccc(Cl)cc1C [Compound 1-14], which “IN (best inhibition value obtained for a compound)” value is on record?
Its value is 56%.

For C#CCOC(CC(n1cncn1)C(C)(C)C)c1ccc(Cl)cc1Cl (stereo not shown) [Compound 1-22], which “IN (best inhibition value obtained for a compound)” value is on record?
Its value is 11%.

C#CCOC(Cn1cncn1)c1ccc(F)cc1 (stereo not shown) [Compound 1-13] was tested. Which “IN (best inhibition value obtained for a compound)” value did it give?
The value was 10%.

How did the “IN (best inhibition value obtained for a compound)” value turn out when C#CCOCc1ccc(OC)cc1 [Compound 1-8] was run?
The value was 57%.

How did the “IN (best inhibition value obtained for a compound)” value turn out when C#CCOCc1cccc(OC)c1 [Compound 1-9] was run?
Its value is 20%.

How did the “IN (best inhibition value obtained for a compound)” value turn out when C#CCOC(Cn1cncn1)c1ccc(Oc2ccc(Cl)cc2)cc1C(F)(F)F (stereo not shown) [Compound 1-7] was run?
The value was 11%.

How did the “IN (best inhibition value obtained for a compound)” value turn out when C#CCOCc1ccc(Oc2ccc(Cl)cc2)cc1 [Compound 1-16] was run?
Its value is 11%.

Which “IN (best inhibition value obtained for a compound)” value does the source give for C#CCOC(Cn1cncn1)c1ccc(Oc2ccc(Cl)cc2)cc1 (stereo not shown) [Compound 1-18] here?
The value was 10%.

How did the “IN (best inhibition value obtained for a compound)” value turn out when C#CCOCc1ccc(Br)cc1 [Compound 1-2] was run?
Its value is 48%.

For C#CCOC(Cn1cncn1)c1ccc(Br)cc1 (stereo not shown) [Compound 1-12], which “IN (best inhibition value obtained for a compound)” value is on record?
Its value is 15%.

How did the “IN (best inhibition value obtained for a compound)” value turn out when C#CCOC(c1ccccc1)C(CCCC)n1cncn1 (stereo not shown) [Compound 1-21] was run?
Its value is 20%.

Which “IN (best inhibition value obtained for a compound)” value does the source give for C#CCOCc1ccc(OC)c(OC)c1 [Compound 1-1] here?
The value was 15%.

With C#CCOCc1ccccc1F [Compound 1-5] as the molecule, how does the “IN (best inhibition value obtained for a compound)” value read?
The value was 27%.

How did the “IN (best inhibition value obtained for a compound)” value turn out when C#CCOC(Cn1cncn1)c1cc(OC)c(OC)c(OC)c1 (stereo not shown) [Compound 1-20] was run?
The value was 10%.

Which “IN (best inhibition value obtained for a compound)” value does the source give for C#CCOCc1ccc(Cl)cc1 [Compound 1-15] here?
Its value is 58%.

same assay, conditions: dose of 10 ppm; same conditions as Example 1.1

For C#Cc1ccccc1 [Phenylacetylene, phenylacetylene, reference compound], which “IN (inhibition value), comparative example” value is on record?
Its value is 7%.
